Source: ChEMBL document CHEMBL4507279, “Data for DCP probe BI-9627” (2021)
The source made the active and inactive calls. No cut-off for these calls is given here.

How the values were obtained:
[1] = target: D(2) dopamine receptor (Homo sapiens) (UniProt P14416); details: Compound concentration 10.0 uM
[2] = target: MAP/microtubule affinity-regulating kinase 3 (Homo sapiens) (UniProt P27448); details: Compound concentration 1000.0 nM
[3] = target: Histamine H2 receptor (Homo sapiens) (UniProt P25021); details: Compound concentration 10.0 uM
[4] = target: Glutamate receptor ionotropic, NMDA 1 (Rattus norvegicus) (UniProt P35439); experiment: NMDAGLSI/RA Eurofins-Panlabs selectivity data (BI); details: Compound concentration 10.0 uM
[5] = target: Sigma intracellular receptor 2 (Homo sapiens) (UniProt Q5BJF2); experiment: SIGMA2/R Eurofins-Panlabs selectivity data (BI); details: Rattus norvegicus; Compound concentration 10.0 uM
[6] = target: Substance-P receptor (Homo sapiens) (UniProt P25103); experiment: NK1/HU Eurofins-Panlabs selectivity data (BI); details: Compound concentration 10.0 uM
[7] = target: Androgen receptor (Rattus norvegicus) (UniProt P15207); experiment: TESTOST/RA Eurofins-Panlabs selectivity data (BI); details: Compound concentration 10.0 uM
[8] = target: Voltage-dependent L-type calcium channel subunit alpha-1C (DHP site) (Rattus norvegicus, UniProt P22002); experiment: CA+/DHPSI/RA Eurofins-Panlabs selectivity data (BI); details: compound concentration 10 uM, read-out: % Ctrl
[9] = target: Neuropeptide Y receptor type 2 (Homo sapiens) (UniProt P49146); experiment: Y2/HU Eurofins-Panlabs selectivity data (BI); details: Compound concentration 10.0 uM
[10] = target: T1, Alpha-2A adrenergic receptor (Homo sapiens) (UniProt P08913); experiment: ALPHA2A/H Eurofins-Panlabs selectivity data (BI); details: Compound concentration 10.0 uM
T1 sequence (whole entry): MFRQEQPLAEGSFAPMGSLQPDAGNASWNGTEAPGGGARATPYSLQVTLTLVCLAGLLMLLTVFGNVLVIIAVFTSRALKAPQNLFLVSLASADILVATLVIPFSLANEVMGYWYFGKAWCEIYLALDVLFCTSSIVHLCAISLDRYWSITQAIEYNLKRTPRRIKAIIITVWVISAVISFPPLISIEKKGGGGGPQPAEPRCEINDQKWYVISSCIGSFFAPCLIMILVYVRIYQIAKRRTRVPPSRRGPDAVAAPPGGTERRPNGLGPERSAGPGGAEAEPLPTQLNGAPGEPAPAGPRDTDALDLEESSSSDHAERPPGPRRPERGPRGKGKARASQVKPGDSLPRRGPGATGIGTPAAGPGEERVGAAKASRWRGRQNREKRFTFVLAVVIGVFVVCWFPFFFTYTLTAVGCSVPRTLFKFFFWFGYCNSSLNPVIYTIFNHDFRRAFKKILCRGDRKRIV

[11] = target: Cysteinyl leukotriene receptor 1 (Homo sapiens) (UniProt Q9Y271); experiment: CYSLT1_HS Eurofins-Panlabs selectivity data (BI); details: Compound concentration 10.0 uM
[12] = target: Gamma-aminobutyric acid receptor subunit alpha-1 (Rattus norvegicus) (UniProt P62813); experiment: GABAACENTR Eurofins-Panlabs selectivity data (BI); details: Compound concentration 10.0 uM
[13] = target: ATP-sensitive inward rectifier potassium channel 1 isoform X1 (Mesocricetus auratus) (UniProt A0A1U8CU73); details: Compound concentration 10.0 uM
[14] = Rat platelet swelling inhibition (rPSA) assay
[15] = target: T2, Muscarinic acetylcholine receptor M2 (Homo sapiens) (UniProt P08172); experiment: M2/HU Eurofins-Panlabs selectivity data (BI)
T2 sequence (whole entry): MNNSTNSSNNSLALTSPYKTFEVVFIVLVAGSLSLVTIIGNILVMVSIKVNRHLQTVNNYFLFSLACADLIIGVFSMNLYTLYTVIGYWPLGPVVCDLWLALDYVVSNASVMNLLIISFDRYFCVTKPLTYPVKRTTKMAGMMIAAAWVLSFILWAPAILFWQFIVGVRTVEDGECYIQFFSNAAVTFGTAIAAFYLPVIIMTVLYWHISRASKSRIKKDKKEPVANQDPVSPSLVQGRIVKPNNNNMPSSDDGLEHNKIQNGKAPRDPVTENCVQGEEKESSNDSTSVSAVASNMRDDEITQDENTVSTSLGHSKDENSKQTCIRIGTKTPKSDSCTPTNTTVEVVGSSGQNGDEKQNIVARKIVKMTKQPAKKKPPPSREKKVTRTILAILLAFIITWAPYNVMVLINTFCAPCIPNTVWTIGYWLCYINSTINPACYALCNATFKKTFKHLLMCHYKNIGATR

[16] = target: Acetylcholine receptor subunit alpha (Homo sapiens) (UniProt P02708); experiment: NACH/H Eurofins-Panlabs selectivity data (BI); details: Compound concentration 10.0 uM
[17] = target: Beta-2 adrenergic receptor (Homo sapiens) (UniProt P07550); experiment: BETA2/HU Eurofins-Panlabs selectivity data (BI); details: Compound concentration 10.0 uM
[18] = target: Delta-type opioid receptor (Homo sapiens) (UniProt P41143); experiment: DELTA/HU Eurofins-Panlabs selectivity data (BI); details: Compound concentration 10.0 uM
[19] = target: Pyroglutamylated RF-amide peptide receptor (Homo sapiens) (UniProt Q96P65); experiment: GPR103 Eurofins-Panlabs selectivity data (BI); details: Compound concentration 10.0 uM
[20] = target: Kappa-type opioid receptor (Homo sapiens) (UniProt P41145); details: Compound concentration 10.0 uM
[21] = target: Muscarinic acetylcholine receptor M3 (Homo sapiens) (UniProt P20309); details: Compound concentration 10.0 uM
[22] = target: Histamine H3 receptor (Homo sapiens) (UniProt Q9Y5N1); details: Compound concentration 10.0 uM
[23] = target: Sodium-dependent serotonin transporter (Homo sapiens) (UniProt P31645); experiment: 5HTTRANS/HU Eurofins-Panlabs selectivity data (BI); details: Compound concentration 10.0 uM
[24] = target: Endothelin-1 receptor (Homo sapiens) (UniProt P25101); experiment: ETA/HU Eurofins-Panlabs selectivity data (BI); details: Compound concentration 10.0 uM
[25] = target: Sigma non-opioid intracellular receptor 1 (Homo sapiens) (UniProt Q99720); experiment: SIGMA1/HU Eurofins-Panlabs selectivity data (BI); details: Compound concentration 10.0 uM
[26] = target: B1 bradykinin receptor (Homo sapiens) (UniProt P46663); experiment: B1/H Eurofins-Panlabs selectivity data (BI); details: Compound concentration 10.0 uM
[27] = target: 5-hydroxytryptamine receptor 1A (Homo sapiens) (UniProt P08908); experiment: 5HT1A/HU Eurofins-Panlabs selectivity data (BI); details: Compound concentration 10.0 uM
[28] = target: P2X purinoceptor (Oryctolagus cuniculus) (UniProt G1U3D6); experiment: P2X/RB Eurofins-Panlabs selectivity data (BI); details: Compound concentration 10.0 uM
[29] = target: D(2) dopamine receptor (Homo sapiens) (UniProt P14416); experiment: D2S/HU Eurofins-Panlabs selectivity data (BI); details: Compound concentration 10.0 uM
[30] = target: Mu-type opioid receptor (Homo sapiens) (UniProt P35372); experiment: MU/HU Eurofins-Panlabs selectivity data (BI); details: Compound concentration 10.0 uM
[31] = target: Adenosine receptor A1 (Homo sapiens) (UniProt P30542); experiment: A1/HU Eurofins-Panlabs selectivity data (BI); details: Compound concentration 10.0 uM

D(2) dopamine receptor (Homo sapiens), sequence (P14416 whole entry): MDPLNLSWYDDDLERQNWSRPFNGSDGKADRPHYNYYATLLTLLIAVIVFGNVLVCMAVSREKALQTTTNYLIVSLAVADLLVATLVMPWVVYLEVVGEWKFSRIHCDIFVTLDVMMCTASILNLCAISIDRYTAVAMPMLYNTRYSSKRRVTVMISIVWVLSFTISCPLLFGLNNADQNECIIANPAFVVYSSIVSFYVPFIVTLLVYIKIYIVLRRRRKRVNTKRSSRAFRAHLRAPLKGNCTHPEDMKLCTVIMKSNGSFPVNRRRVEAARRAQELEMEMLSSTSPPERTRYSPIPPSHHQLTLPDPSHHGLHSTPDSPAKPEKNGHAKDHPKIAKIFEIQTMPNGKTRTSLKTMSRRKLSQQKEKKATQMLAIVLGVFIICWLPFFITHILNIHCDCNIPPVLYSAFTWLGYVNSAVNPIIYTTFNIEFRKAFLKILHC
Cysteinyl leukotriene receptor 1 (Homo sapiens), sequence (Q9Y271 whole entry): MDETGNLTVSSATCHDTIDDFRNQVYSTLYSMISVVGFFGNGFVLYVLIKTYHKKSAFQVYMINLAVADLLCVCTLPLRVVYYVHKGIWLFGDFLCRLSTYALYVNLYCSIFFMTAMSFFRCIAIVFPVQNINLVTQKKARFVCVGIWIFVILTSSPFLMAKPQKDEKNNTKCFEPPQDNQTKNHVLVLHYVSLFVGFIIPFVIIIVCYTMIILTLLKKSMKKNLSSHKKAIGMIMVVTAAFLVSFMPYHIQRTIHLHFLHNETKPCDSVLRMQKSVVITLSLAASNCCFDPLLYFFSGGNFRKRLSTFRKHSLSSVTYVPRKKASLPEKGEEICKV
Beta-2 adrenergic receptor (Homo sapiens), sequence (P07550 whole entry, looked up): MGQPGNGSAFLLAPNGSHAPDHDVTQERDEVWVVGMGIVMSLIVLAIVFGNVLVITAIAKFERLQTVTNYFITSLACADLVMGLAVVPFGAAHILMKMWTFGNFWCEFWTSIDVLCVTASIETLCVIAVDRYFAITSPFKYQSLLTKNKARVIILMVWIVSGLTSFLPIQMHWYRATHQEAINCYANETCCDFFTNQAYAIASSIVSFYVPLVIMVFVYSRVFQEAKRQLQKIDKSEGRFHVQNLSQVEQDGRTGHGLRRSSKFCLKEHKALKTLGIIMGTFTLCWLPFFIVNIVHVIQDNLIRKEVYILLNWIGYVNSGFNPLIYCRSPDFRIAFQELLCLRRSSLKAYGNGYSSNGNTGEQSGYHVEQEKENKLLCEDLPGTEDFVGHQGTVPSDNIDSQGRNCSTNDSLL
Kappa-type opioid receptor (Homo sapiens), sequence (P41145 whole entry): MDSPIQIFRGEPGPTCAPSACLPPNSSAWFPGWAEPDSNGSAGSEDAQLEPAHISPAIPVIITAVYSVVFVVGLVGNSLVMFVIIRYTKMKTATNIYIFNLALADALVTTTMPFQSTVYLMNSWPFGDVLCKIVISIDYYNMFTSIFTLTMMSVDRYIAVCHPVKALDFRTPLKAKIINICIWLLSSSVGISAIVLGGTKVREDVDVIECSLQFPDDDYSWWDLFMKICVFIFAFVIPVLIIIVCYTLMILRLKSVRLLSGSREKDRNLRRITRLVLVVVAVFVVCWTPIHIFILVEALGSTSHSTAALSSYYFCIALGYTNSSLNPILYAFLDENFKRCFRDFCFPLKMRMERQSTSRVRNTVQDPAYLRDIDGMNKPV
Voltage-dependent L-type calcium channel subunit alpha-1C (DHP site), sequence (P22002 whole entry): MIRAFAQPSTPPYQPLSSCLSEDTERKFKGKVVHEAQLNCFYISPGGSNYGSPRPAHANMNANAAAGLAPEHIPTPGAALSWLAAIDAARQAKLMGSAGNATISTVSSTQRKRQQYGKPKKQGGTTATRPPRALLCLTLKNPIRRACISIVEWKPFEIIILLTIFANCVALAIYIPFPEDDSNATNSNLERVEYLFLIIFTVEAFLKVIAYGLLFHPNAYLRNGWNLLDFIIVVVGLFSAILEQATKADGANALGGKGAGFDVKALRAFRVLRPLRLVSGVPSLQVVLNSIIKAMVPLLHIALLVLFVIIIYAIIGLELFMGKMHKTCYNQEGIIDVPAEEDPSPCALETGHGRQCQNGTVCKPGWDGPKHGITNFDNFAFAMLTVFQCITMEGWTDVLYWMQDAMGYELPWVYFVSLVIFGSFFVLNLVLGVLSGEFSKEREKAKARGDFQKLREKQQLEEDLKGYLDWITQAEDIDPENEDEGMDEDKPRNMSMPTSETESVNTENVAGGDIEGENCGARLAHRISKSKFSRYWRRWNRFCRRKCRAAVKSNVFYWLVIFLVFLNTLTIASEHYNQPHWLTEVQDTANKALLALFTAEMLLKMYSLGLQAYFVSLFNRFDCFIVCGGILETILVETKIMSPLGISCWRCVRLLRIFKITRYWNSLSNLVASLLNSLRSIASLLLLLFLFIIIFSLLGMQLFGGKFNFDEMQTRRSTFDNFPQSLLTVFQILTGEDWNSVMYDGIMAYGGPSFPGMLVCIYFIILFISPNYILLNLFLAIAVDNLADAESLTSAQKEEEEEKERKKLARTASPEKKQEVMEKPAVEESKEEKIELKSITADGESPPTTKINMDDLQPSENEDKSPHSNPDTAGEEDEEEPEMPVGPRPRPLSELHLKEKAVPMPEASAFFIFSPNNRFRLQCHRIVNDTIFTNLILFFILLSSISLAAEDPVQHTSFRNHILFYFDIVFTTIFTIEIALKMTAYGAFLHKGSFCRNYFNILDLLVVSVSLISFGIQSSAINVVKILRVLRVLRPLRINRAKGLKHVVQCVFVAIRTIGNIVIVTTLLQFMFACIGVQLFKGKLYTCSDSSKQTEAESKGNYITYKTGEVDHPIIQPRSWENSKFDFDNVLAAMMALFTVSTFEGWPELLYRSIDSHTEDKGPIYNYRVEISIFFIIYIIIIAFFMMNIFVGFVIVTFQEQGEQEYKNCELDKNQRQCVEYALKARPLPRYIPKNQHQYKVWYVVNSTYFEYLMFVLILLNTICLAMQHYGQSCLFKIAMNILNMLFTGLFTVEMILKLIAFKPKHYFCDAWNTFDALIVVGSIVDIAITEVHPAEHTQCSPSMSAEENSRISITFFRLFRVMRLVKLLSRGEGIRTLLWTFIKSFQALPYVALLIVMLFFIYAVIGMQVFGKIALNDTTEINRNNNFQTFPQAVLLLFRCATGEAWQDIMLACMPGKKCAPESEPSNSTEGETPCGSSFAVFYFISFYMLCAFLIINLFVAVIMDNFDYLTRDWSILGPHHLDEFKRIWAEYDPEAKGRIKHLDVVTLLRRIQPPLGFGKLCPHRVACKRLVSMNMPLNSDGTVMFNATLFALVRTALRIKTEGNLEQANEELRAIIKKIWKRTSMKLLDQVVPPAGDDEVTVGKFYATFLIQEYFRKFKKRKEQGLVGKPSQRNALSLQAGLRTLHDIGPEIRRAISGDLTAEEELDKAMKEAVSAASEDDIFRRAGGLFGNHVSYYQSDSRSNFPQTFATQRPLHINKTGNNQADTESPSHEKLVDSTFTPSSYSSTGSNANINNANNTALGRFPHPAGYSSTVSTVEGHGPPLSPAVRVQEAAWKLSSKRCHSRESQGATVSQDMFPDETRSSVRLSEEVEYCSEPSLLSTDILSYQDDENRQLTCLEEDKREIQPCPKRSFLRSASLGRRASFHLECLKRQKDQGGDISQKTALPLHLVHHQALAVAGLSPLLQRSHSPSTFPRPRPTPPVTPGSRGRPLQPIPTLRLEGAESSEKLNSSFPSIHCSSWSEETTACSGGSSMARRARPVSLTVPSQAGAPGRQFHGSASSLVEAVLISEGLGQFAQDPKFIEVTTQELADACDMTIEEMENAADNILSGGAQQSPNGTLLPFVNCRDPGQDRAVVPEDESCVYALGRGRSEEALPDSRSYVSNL
Histamine H2 receptor (Homo sapiens), sequence (P25021 whole entry): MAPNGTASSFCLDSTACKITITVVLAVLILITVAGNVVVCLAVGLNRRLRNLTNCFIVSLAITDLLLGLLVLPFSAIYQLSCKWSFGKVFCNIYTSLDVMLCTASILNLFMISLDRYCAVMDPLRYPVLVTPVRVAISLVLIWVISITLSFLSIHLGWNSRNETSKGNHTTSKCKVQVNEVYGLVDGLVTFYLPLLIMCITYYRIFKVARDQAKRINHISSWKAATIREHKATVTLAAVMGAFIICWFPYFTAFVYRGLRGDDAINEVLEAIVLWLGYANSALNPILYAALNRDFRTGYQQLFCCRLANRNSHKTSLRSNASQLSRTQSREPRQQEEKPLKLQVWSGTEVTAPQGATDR
Gamma-aminobutyric acid receptor subunit alpha-1 (Rattus norvegicus), sequence (P62813 whole entry, canonical isoform): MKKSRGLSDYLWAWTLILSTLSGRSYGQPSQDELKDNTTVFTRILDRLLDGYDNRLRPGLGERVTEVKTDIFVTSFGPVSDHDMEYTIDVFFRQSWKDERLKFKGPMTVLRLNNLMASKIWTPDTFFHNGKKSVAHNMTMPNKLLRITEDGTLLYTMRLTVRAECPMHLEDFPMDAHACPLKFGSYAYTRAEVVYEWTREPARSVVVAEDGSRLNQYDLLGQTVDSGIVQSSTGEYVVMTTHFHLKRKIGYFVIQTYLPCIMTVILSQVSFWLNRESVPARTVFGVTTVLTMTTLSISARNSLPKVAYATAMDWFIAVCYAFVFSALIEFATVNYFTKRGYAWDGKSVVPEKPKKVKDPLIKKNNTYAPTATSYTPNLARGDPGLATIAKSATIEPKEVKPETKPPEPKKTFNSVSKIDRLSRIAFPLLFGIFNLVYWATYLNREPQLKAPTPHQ
5-hydroxytryptamine receptor 1A (Homo sapiens), sequence (P08908 whole entry): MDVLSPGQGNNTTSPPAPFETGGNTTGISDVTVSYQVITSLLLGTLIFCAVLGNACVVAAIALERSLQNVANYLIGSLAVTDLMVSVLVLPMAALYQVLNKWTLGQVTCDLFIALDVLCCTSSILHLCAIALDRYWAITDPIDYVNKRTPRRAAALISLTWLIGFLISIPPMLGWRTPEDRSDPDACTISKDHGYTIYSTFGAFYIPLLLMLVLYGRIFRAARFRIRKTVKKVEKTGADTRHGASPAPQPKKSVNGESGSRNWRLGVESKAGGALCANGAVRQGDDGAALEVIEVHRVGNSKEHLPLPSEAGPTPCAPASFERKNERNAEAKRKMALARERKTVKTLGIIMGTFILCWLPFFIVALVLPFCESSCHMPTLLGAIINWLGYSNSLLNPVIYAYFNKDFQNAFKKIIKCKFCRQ

Q: With `CC(=O)N1CCC(c2ccc(C(=O)NC3=NCCN3)cc2C(F)(F)F)CC1` [BI 0054] as the molecule, how does the inhibition [1] read?
A: -4.57%

Q: What about the residual activity [2] of the same molecule?
A: 100%

Q: And the inhibition [3]?
A: -9.37%

Q: Which residual activity [4] does the source give for `CC(=O)N1CCC(c2ccc(C(=O)NC(=N)N)cc2C(F)(F)F)CC1` [BI 9627] here?
A: 109%

Q: And the residual activity [5]?
A: 90%

Q: And the residual activity [6]?
A: 100%

Q: What about the residual activity [7] of the same molecule?
A: 95%

Q: And the activity at 10 µM [8]?
A: 77% (not active)

Q: And the residual activity [9]?
A: 103%

Q: And the residual activity [10]?
A: 93%

Q: What about the residual activity [11] of the same molecule?
A: 95%

Q: What about the residual activity [12] of the same molecule?
A: 92%

Q: And the residual activity [13]?
A: 96%

Q: What about the IC50 [14] of the same molecule?
A: 138 nM (active)

Q: What about the residual activity ([15]; Compound concentration 0.03 uM) of the same molecule?
A: 102%

Q: And the residual activity ([15]; Compound concentration 0.1 uM)?
A: 108%

Q: What about the residual activity ([15]; Compound concentration 0.3 uM) of the same molecule?
A: 71%

Q: And the residual activity ([15]; Compound concentration 1.0 uM)?
A: 70%

Q: And the residual activity ([15]; Compound concentration 3.0 uM)?
A: 48%

Q: And the residual activity ([15]; Compound concentration 10.0 uM)?
A: 33%

Q: And the residual activity ([15]; Compound concentration 30.0 uM)?
A: 11%

Q: And the residual activity [16]?
A: 102%

Q: And the residual activity [17]?
A: 102%

Q: And the residual activity [18]?
A: 113%

Q: And the residual activity [19]?
A: 92%

Q: And the inhibition [20]?
A: 9.26%

Q: What about the inhibition [21] of the same molecule?
A: 12.1%

Q: And the inhibition [22]?
A: -6.54%

Q: And the residual activity [23]?
A: 89%

Q: And the residual activity [24]?
A: 103%

Q: What about the residual activity [25] of the same molecule?
A: 114%

Q: What about the residual activity [26] of the same molecule?
A: 97%

Q: And the residual activity [27]?
A: 82%

Q: What about the residual activity [28] of the same molecule?
A: 98%

Q: What about the residual activity [29] of the same molecule?
A: 110%

Q: And the residual activity [30]?
A: 91%

Q: And the residual activity [31]?
A: 58%
